Laboratory results published in patent US20260315431A1, “NANOMATERIAL ENCAPSULATED BIOFILM INHIBITORS FOR DENTAL CARIES TREATMENT” (THE UAB RESEARCH FOUNDATION, priority 2023, published 2026).
“Also recorded” adds a separate entry of the source. Marks after values point to notes of the source that are not given here.

Assays:
S. mutans UA159 = test: Gnotobiotic rat model of dental caries (HEBI / HA5 study, Example 1); assay type: in vivo, Fischer 344 rats infected with S. mutans UA159; set-up: key to Buccal Mean Caries Scores (±SEM) E / Buccal Mean Caries Scores (±SEM) Ds / Buccal Mean Caries Scores (±SEM) Dm / Buccal Mean Caries Scores (±SEM) Dx / Sulcal Mean Caries Scores (± SEM) E / Sulcal Mean Caries Scores (± SEM) Ds / Sulcal Mean Caries Scores (± SEM) Dm / Sulcal Mean Caries Scores (± SEM) Dx / Proximal Mean Caries Scores (± SEM) E: caries scores by the method of Keyes; conditions: for CFU/mL BAP: Blood Agar Plates; for CFU/mL BAP / CFU/mL MS / Buccal Mean Caries Scores (±SEM) Dx / Sulcal Mean Caries Scores (± SEM) Dx / Buccal Mean Caries Scores (±SEM) Dm / Sulcal Mean Caries Scores (± SEM) Dm / Buccal Mean Caries Scores (±SEM) Ds / Sulcal Mean Caries Scores (± SEM) Ds / Buccal Mean Caries Scores (±SEM) E / Proximal Mean Caries Scores (± SEM) E / Sulcal Mean Caries Scores (± SEM) E: 100 μM (NaF 250 ppm), 4 weeks; for CFU/mL MS: Mitis Salivarius agar; for Buccal Mean Caries Scores (±SEM) Dx / Sulcal Mean Caries Scores (± SEM) Dx: dentinal extensive; for Buccal Mean Caries Scores (±SEM) Dx / Sulcal Mean Caries Scores (± SEM) Dx / Buccal Mean Caries Scores (±SEM) Dm / Sulcal Mean Caries Scores (± SEM) Dm / Buccal Mean Caries Scores (±SEM) Ds / Sulcal Mean Caries Scores (± SEM) Ds / Buccal Mean Caries Scores (±SEM) E / Proximal Mean Caries Scores (± SEM) E / Sulcal Mean Caries Scores (± SEM) E: topical twice daily; for Buccal Mean Caries Scores (±SEM) Dm / Sulcal Mean Caries Scores (± SEM) Dm: dentinal moderate; for Buccal Mean Caries Scores (±SEM) Ds / Sulcal Mean Caries Scores (± SEM) Ds: dentinal slight; for Buccal Mean Caries Scores (±SEM) E / Proximal Mean Caries Scores (± SEM) E / Sulcal Mean Caries Scores (± SEM) E: enamel
Method: Reduction of S. mutans virulence in vivo by HA5 or HEBI. The effects of compound HA5 and HEBI on S. mutans virulence were evaluated using a well-established gnotobiotic rat model of dental caries 67. Hydrogel microparticles with no drug were used to ensure that the observed anti-virulence activity observed with HEBI was not related to the hydrogel material. The standard NaF (250 ppm) was included as a positive control. A (vehicle+infection only) group was included as a negative control. All rats in the experimental groups and control groups were colonized with S. mutans UA159. […] Similar reductions in caries scores were also observed in proximal enamel caries scores (Table 3). An evaluation of the effect of the treatment on proximal dentinal scores was unable to be performed as there were no significant proximal dentinal lesions for the control and treated groups in this study. […] The observed reduction in caries scores by HA5 and HEBI were similar with HEBI displaying slightly better in vivo activity, possibly due to the pH-dependent slow release. The observed reduction in caries scores by HA5 or HEBI is lower than the 250 ppm NaF treatment. However, it should be noted that the concentration of NaF (250 ppm=5.95 mM) is about 59-fold higher than HA5 (100 μM). At the end of the study, the animals were euthanized, their mandibles excised for microbiological analysis of plaque samples on MS agar plates and BAP and for scoring of caries by the method of Keyes^68 to determine the bacterial colonization. […] All in vivo experimental protocols were approved by the University of Alabama at Birmingham Institutional Animal Care and Use Committee (protocol No: IACUC-20047). The methods were carried out in accordance with the relevant guidelines and regulations.
Rat model of dental caries. In vivo studies of colonization and virulence of S. mutans were evaluated using a previously reported rat model of dental caries^71. Offspring of gnotobiotic Fischer 344 rats used in this experiment were bred and maintained in trexler isolators. Male and female rat pups were removed from isolators at 20 days of age and randomly assigned into 5 treatment groups of 5 rats/group in cages with filter tops. Rats were then infected with S. mutans UA159 strain by oral swabbing daily for four consecutive days with a fresh overnight culture of S. mutans UA159. Rats were provided with caries promoting Teklad Diet 305 containing […] (Harlan Laboratories, Inc., Indianapolis, IN) and sterile drinking water ad libitum. Oral swabs were taken 5 days post-infection and plated on Todd Hewitt (TH) agar plates and incubated at 37° C. in an environment of 5% CO2 in the air to confirm colonization. Rats were weighed at weaning and at the termination of the experiment. One-week post-infection, the molars of the rats were treated topically twice daily for 4 weeks with the test compounds using camel-hair brushes. The five treatment groups used in this study were: 1) HEBI (100 μM); 2) HA5 (100 μM); 3) hydrogel encapsulated PBS (no drug) containing 0.1% DMSO (negative control), 4) 250 ppm NaF (positive control) and 5) infected untreated group (negative control). Drinking water was withheld for 60 min following each treatment with the compound. Animals were weighed at weaning and at the termination of the experiment. On day 60, the rats were sacrificed using CO2 followed by cervical dislocation or bilateral thoracotomy. The mandibles were surgically removed and cleaned of excess tissue to assess the level of bacteria present and the extent of caries formation. The right mandibles from each rat were placed in a tube containing phosphate buffer (3 mL), placed on ice and sonicated (10 sec) to release bacteria from the molars. Each sample was serially diluted, plated on blood agar plates (BAP) and mitis-salivarius (MS) agar plates and incubated in an environment of 5% CO2 at 37° C. to quantify the level of total bacteria and S. mutans present in the plaque. […]

S. sanguinis SK36 = test: Planktonic growth, S. sanguinis SK36 (OD470); assay type: cell-based, Streptococcus sanguinis
Method: The bacterial strains, S. mutans UA159, S. gordonii DL1, and S. sanguinis SK36 were inoculated statically at 37° C. under 5% CO2 in Todd Hewitt Broth (THB) for 24 h. The cultures were then diluted with fresh THB (1:5) and reinoculated until optical density at 470 nm (OD470) reached 1. The optical density was read using BioTek 800TS microplate reader at 470 nm for bacterial growth and 562 nm for biofilm stained with crystal violet. Data was plotted in Graphpad Prism9.
(§1) S. mutans, S. gordonii, and S. sanguinis growth assays. Effects of compounds on S. mutans and commensal bacterial growth were evaluated using the growth assay as described^69. S. mutans UA159, S. gordonii DL1, S. sanguinis SK36, cultures were grown for 24 h under 5% CO2 at 37° C. These cultures were then reinoculated with fresh THB (1:5) until OD470=1 when the bacteria were ready to be used. Different concentrations of the inhibitor were assayed in chemically defined media (CDM) with 1% of the bacteria, 1% sucrose and 1% DMSO in 96 well plates. The 96 well plates were incubated under 5% CO2 at 37° C. for 16 h. Growth of the bacteria was read after 16 h at OD470. Each assay was carried out at least in triplicate.
All bacterial strains (S. mutans UA159, S. gordonii DL1, and S. sanguinis SK36) were inoculated statically at 37° C. under 5% CO2 environment in Todd Hewitt Broth (THB) for 24 h^[61]. The cultures were then diluted with fresh THB (1:5) and reinoculated until the optical density at 470 nm reaches 1. The optical density was read using BioTek 800 TS absorbance reader at 470 nm for bacterial growth and 562 nm for biofilm stained with crystal violet. Data was plotted in Prism 10.0.2.
as §1, with “Effects” for “S. mutans, S. gordonii, and S. sanguinis growth assays. Effects”, “PEHA5, PEHA6, HA5 or HA6” for “compounds”, “described^[62].” for “described^69.”, “PEHA5, PEHA6, HA5 or HA6” for “inhibitor”, “CDM” for “chemically defined media (CDM)”

SMILES	effect on bacterial colonization (S. mutans UA159; 4-week treatment, 100 μM)	reduction in caries scores (S. mutans UA159; 4-week treatment, 100 μM)	CFU/mL BAP (S. mutans UA159)	CFU/mL MS (S. mutans UA159)	Buccal Mean Caries Scores (±SEM) Dx (S. mutans UA159)	Sulcal Mean Caries Scores (± SEM) Dx (S. mutans UA159)	Buccal Mean Caries Scores (±SEM) Dm (S. mutans UA159)	Sulcal Mean Caries Scores (± SEM) Dm (S. mutans UA159)	Buccal Mean Caries Scores (±SEM) Ds (S. mutans UA159)	Sulcal Mean Caries Scores (± SEM) Ds (S. mutans UA159)	Buccal Mean Caries Scores (±SEM) E (S. mutans UA159)	Proximal Mean Caries Scores (± SEM) E (S. mutans UA159)	Sulcal Mean Caries Scores (± SEM) E (S. mutans UA159)	planktonic growth of S. sanguinis (S. sanguinis SK36; 25 μM)	growth of S. sanguinis (S. sanguinis SK36; 50 μM and 100 μM (100 μM))	growth of S. sanguinis (S. sanguinis SK36; at biofilm inhibiting doses)	growth of S. sanguinis (S. sanguinis SK36; 25 μM and 50 μM)
O=C1/C(=C/c2cc(O)c(O)cc2O)Oc2ccccc21 [HA5, 2-[(2′,4′,5′-Trihydroxyphenyl)methylidene]-2,3-dihydro-1-benzofuran-3-one]	not significant; also recorded: without affecting the bacterial colonization significantly	significant reduction in buccal, sulcal, and proximal dental caries scores	3.0 ± 1.0 CFU/mL (×10^6)	2.5 ± 0.8 CFU/mL (×10^6)	2.0 ± 0.7	4.4 ± 0.9	3.8 ± 0.2	8.8 ± 0.9	6.0 ± 0.4	16.2 ± 0.4	11.0 ± 0.3	4.0 ± 0.0	22.0 ± 0.6	did not affect the planktonic growth	did not inhibit the growth; also recorded: does not inhibit the growth	without affecting the growth	–
O=C1/C(=C/c2cc(O)c(O)c(O)c2)Oc2ccccc21 [HA6, 2-[(3′,4′,5′-Trihydroxyphenyl)methylidene]-2,3-dihydro-1-benzofuran-3-one]	–	–	–	–	–	–	–	–	–	–	–	–	–	–	–	without affecting the growth	did not inhibit the growth
[F-].[Na+] [NaF, reference compound]	–	–	4.0 ± 0.9 CFU/mL (×10^6)	3.4 ± 0.5 CFU/mL (×10^6)	0.0 ± 0.0	1.0 ± 0.3	1.0 ± 0.8	4.6 ± 0.2	2.4 ± 0.8	11.2 ± 0.4	5.0 ± 0.7	1.2 ± 0.8	14.2 ± 0.7	–	–	–	–
